IC50 data for 32 compounds are collected here from patent US20090247559A1 (Exelixis, Inc., priority 2007, published 2009).

Molecules are shown by their SMILES.

One assay concerns the target CK2 (Homo sapiens, UniProt P68400). As to the kind of experiment: CK2 inhibition, biochemical chemiluminescence holoenzyme assay (Kinase Glo, IC50 determination). The settings on record: Table 1 activity class; symbol given only if active; read-out: CK2 IC50 (Activity C). The essentials: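 Holoenzyme CK2 assay; compounds pre-incubated with substrate and enzyme, then reacted 150 min at 24-27° C. Remaining ATP measured as luminescence with Kinase Glo, and IC50 derived from the signal.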
A general note: Kinase-Glo measures the ATP left after a reaction by luminescence.

For assay [1], the target named is PIM (PIM-1, PIM-2, and/or PIM-3). As to the kind of experiment: PIM-1, PIM-2 and PIM-3 inhibition, biochemical chemiluminescence assays (Kinase Glo, IC50 determination). To be noted: Table 1 activity class; PIM refers to PIM-1, PIM-2, and/or PIM-3; read-out: PIM IC50 (Activity B).

CK2, sequence (P68400 whole entry): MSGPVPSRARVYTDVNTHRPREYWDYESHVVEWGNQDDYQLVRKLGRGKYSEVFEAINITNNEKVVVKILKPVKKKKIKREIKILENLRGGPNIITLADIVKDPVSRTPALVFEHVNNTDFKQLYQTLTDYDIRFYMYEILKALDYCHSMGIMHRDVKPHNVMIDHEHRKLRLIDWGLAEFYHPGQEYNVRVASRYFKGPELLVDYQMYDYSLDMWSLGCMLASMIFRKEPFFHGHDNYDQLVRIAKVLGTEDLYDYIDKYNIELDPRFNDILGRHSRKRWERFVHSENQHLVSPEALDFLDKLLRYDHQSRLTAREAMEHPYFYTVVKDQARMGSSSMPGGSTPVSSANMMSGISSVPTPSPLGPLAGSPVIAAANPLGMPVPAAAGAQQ
CK2, sequence (P67870 whole entry partner): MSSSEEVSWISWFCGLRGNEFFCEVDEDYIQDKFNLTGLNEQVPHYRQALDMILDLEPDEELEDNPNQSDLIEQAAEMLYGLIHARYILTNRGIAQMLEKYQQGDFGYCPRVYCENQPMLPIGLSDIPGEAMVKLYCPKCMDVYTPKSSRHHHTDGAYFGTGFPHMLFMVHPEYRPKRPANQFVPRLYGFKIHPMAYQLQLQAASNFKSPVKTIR

`O=c1[nH]c(CNCc2ccncc2)nc2c1oc1ccc(Br)cc12` [Compound 165, 8-bromo-2-{[(pyridin-4-ylmethyl)amino]methyl}[1]benzofuro[3,2-d]pyrimidin-4(3H)-one]: the IC50 (at CK2; in assay [1]) was under 10 µM each time.
As to `NCCN1CCC(Cc2nc3c(oc4ccc(Br)cc43)c(=O)[nH]2)CC1` [Compound 168, 2-{[1-(2-aminoethyl)piperidin-4-yl]methyl}-8-bromo[1]benzofuro[3,2-d]pyrimidin-4(3H)-one], the half-maximal inhibitory concentration (IC50) (on CK2; in assay [1]) was under 10 µM each time.
For the compound `COc1cccc2oc3c(=O)[nH]c(-c4ccc5[nH]nc(C)c5c4)nc3c12` [Compound 170, 2-(3-methyl-1H-indazol-5-yl)-9-(methyloxy)[1]benzofuro[3,2-d]pyrimidin-4(3H)-one], the IC50 (at CK2; in assay [1]) was under 10 µM throughout.
In the case of `COc1cccc2oc3c(=O)[nH]c(-c4ccc5[nH]nc(N)c5c4)nc3c12` [Compound 171, 2-(3-amino-1H-indazol-5-yl)-9-(methyloxy)[1]benzofuro[3,2-d]pyrimidin-4(3H)-one], the IC50 (on CK2; in assay [1]) was under 10 µM in each case.
Take `CCC(c1nc2c(oc3ccc(Br)cc32)c(=O)[nH]1)N1CCN(C)CC1` (stereo not shown) [Compound 172, 8-bromo-2-[1-(4-methylpiperazin-1-yl)propyl][1]benzofuro[3,2-d]pyrimidin-4(3H)-one]: the IC50 (on CK2; in assay [1]) was under 10 µM in each case.
For the compound `O=c1[nH]c(Cn2ccnc2-c2ccccc2)nc2c1oc1ccc(Br)cc12` [Compound 176, 8-bromo-2-[(2-phenyl-1H-imidazol-1-yl)methyl][1]benzofuro[3,2-d]pyrimidin-4(3H)-one], the IC50 (on CK2; in assay [1]) was under 10 µM throughout.
Regarding `CC(C)(NCc1nc2c(oc3ccc(Br)cc32)c(=O)[nH]1)C(N)=O` [Compound 177, N-2-[(8-bromo-4-oxo-3,4-dihydro[1]benzofuro[3,2-d]pyrimidin-2-yl)methyl]-2-methylalaninamide], the IC50 (at CK2; in assay [1]) was under 10 µM in each case.
On to `CN(C)CC(C)(C)CNc1ccc(-c2nc3c(oc4ccc(Br)cc43)c(=O)[nH]2)c(Cl)c1` [Compound 179, 8-bromo-2-(2-chloro-4-{[3-(dimethylamino)-2,2-dimethylpropyl]amino}phenyl)[1]benzofuro[3,2-d]pyrimidin-4(3H)-one], for which the IC50 (at CK2; in assay [1]) was under 10 µM in each case.
Regarding `O=c1[nH]c(Nc2ccccc2)nc2c1oc1ccc(Br)cc12` [Compound 180, 8-bromo-2-(phenylamino)[1]benzofuro[3,2-d]pyrimidin-4(3H)-one], the IC50 (at CK2; in assay [1]) was under 10 µM in each case.
For `CC(=O)N1CCN(Cc2nc3c(oc4ccc(Br)cc43)c(=O)[nH]2)CC1` [Compound 187, 2-[(4-acetylpiperazin-1-yl)methyl]-8-bromo[1]benzofuro[3,2-d]pyrimidin-4(3H)-one], the IC50 (at CK2; in assay [1]) was under 10 µM throughout.
For `CC(C)(CN1CCCC1)NCc1nc2c(oc3ccc(Br)cc32)c(=O)[nH]1` [Compound 190, 8-bromo-2-{[(1,1-dimethyl-2-pyrrolidin-1-ylethyl)amino]methyl}[1]benzofuro[3,2-d]pyrimidin-4(3H)-one], the IC50 (at CK2; in assay [1]) was under 10 µM each time.
As for `Cc1ccc(N2C[C@@H]3C[C@H]2CN3Cc2nc3c(oc4ccc(Br)cc43)c(=O)[nH]2)cc1` [Compound 192, 8-bromo-2-{[(1S,4S)-5-(4-methylphenyl)-2,5-diazabicyclo[2.2.1]hept-2-yl]methyl}[1]benzofuro[3,2-d]pyrimidin-4(3H)-one], the IC50 (at CK2; in assay [1]) was under 10 µM in each case.
Turning to `CN(C)CCCNc1nc2c(oc3ccc(Br)cc32)c(=O)[nH]1` [Compound 193, 8-bromo-2-{[3-(dimethylamino)propyl]amino}[1]benzofuro[3,2-d]pyrimidin-4(3H)-one], the IC50 (on CK2; in assay [1]) was under 10 µM each time.
`O=c1[nH]c(N2CCCC2)nc2c1oc1ccc(Br)cc12` [Compound 196, 8-bromo-2-pyrrolidin-1-yl[1]benzofuro[3,2-d]pyrimidin-4(3H)-one]: the IC50 (at CK2; in assay [1]) was under 10 µM throughout.
In the case of `CC(=O)N1CCC(c2nc3c(oc4ccc(Br)cc43)c(=O)[nH]2)CC1` [Compound 203, 2-(1-acetylpiperidin-4-yl)-8-bromo[1]benzofuro[3,2-d]pyrimidin-4(3H)-one], the IC50 (on CK2; in assay [1]) was under 10 µM throughout.
For `O=c1[nH]c(CN2CC[C@H](O)C2)nc2c1oc1ccccc12` [Compound 204, 2-{[(3S)-3-hydroxypyrrolidin-1-yl]methyl}[1]benzofuro[3,2-d]pyrimidin-4(3H)-one], the concentration for half-maximal inhibition (IC50) (on CK2; in assay [1]) was under 10 µM each time.
In the case of `CN(C)CCC(=O)N1CCC(c2nc3c(oc4ccc(Br)cc43)c(=O)[nH]2)CC1` [Compound 206, 8-bromo-2-[1-(N,N-dimethyl-beta-alanyl)piperidin-4-yl][1]benzofuro[3,2-d]pyrimidin-4(3H)-one], the IC50 (at CK2; in assay [1]) was under 10 µM each time.
For `CN(C)CCCC(=O)N1CCC(c2nc3c(oc4ccc(Br)cc43)c(=O)[nH]2)CC1` [Compound 207, 8-bromo-2-{1-[4-(dimethylamino)butanoyl]piperidin-4-yl}[1]benzofuro[3,2-d]pyrimidin-4(3H)-one], the IC50 (at CK2; in assay [1]) was under 10 µM each time.
Turning to `O=C(c1ccc2[nH]cnc2c1)N1CCC(c2nc3c(oc4ccc(Br)cc43)c(=O)[nH]2)CC1` [Compound 208, 2-[1-(1H-benzimidazol-5-ylcarbonyl)piperidin-4-yl]-8-bromo[1]benzofuro[3,2-d]pyrimidin-4(3H)-one], the IC50 (on CK2; in assay [1]) was under 10 µM each time.
As to `COCCC(=O)N1CCC(c2nc3c(oc4ccc(Br)cc43)c(=O)[nH]2)CC1` [Compound 209, 8-bromo-2-{1-[3-(methyloxy)propanoyl]piperidin-4-yl}[1]benzofuro[3,2-d]pyrimidin-4(3H)-one], the IC50 (on CK2; in assay [1]) was under 10 µM throughout.
Consider `CN(C)CC(=O)N1CCC(c2nc3c(oc4ccc(Br)cc43)c(=O)[nH]2)CC1` [Compound 210, 8-bromo-2-[1-(N,N-dimethylglycyl)piperidin-4-yl][1]benzofuro[3,2-d]pyrimidin-4(3H)-one], for which the IC50 (on CK2; in assay [1]) was under 10 µM in each case.
Turning to `NCc1cc(Cl)c(-c2nc3c(oc4ccc(Br)cc43)c(=O)[nH]2)cc1F` [Compound 211, 2-[4-(aminomethyl)-2-chloro-5-fluorophenyl]-8-bromo[1]benzofuro[3,2-d]pyrimidin-4(3H)-one], the IC50 (at CK2; in assay [1]) was under 10 µM in each case.
Turning to `CN1CCN(CC(C)(C)NCc2nc3c(oc4ccc(Br)cc43)c(=O)[nH]2)CC1` [Compound 212, 8-bromo-2-({[1,1-dimethyl-2-(4-methylpiperazin-1-yl)ethyl]amino}methyl)[1]benzofuro[3,2-d]pyrimidin-4(3H)-one], the IC50 (on CK2; in assay [1]) was under 10 µM each time.
Turning to `O=c1[nH]c(NC2CCNCC2)nc2c1oc1ccc(Br)cc12` [Compound 213, 8-bromo-2-(piperidin-4-ylamino)[1]benzofuro[3,2-d]pyrimidin-4(3H)-one], the IC50 (at CK2; in assay [1]) was under 10 µM throughout.
Regarding `CC(C)(C)OC(=O)NC1CCC(c2nc3c(oc4ccc(Br)cc43)c(=O)[nH]2)CC1` (stereo not shown) [Compound 222, 1,1-Dimethylethyl [4-(8-bromo-4-oxo-3,4-dihydro[1]benzofuro[3,2-d]pyrimidin-2-yl)cyclohexyl]carbamate], the IC50 (at CK2; in assay [1]) was under 10 µM in each case.
Consider `CN(C)CCN1CCN(c2nc3c(oc4ccc(Br)cc43)c(=O)[nH]2)CC1` [Compound 227, 8-bromo-2-{4-[2-(dimethylamino)ethyl]piperazin-1-yl}[1]benzofuro[3,2-d]pyrimidin-4(3H)-one], for which the IC50 (on CK2; in assay [1]) was under 10 µM each time.
As for `CN1CCC(N2CCN(c3nc4c(oc5ccc(Br)cc54)c(=O)[nH]3)CC2)CC1` [Compound 228, 8-bromo-2-[4-(1-methylpiperidin-4-yl)piperazin-1-yl][1]benzofuro[3,2-d]pyrimidin-4(3H)-one], the IC50 (on CK2; in assay [1]) was under 10 µM in each case.
Consider `O=c1[nH]c(CN2C[C@H]3CNC[C@H]3C2)nc2c1oc1ccc(Br)cc12` [Compound 229, 8-bromo-2-[(3aR,6aS)-hexahydropyrrolo[3,4-c]pyrrol-2(1H)-ylmethyl][1]benzofuro[3,2-d]pyrimidin-4(3H)-one], for which the IC50 (on CK2; in assay [1]) was under 10 µM throughout.
On to `O=C(C1CCOC1)N1CCC(c2nc3c(oc4ccc(Br)cc43)c(=O)[nH]2)CC1` (stereo not shown) [Compound 233, 8-bromo-2-[1-(tetrahydrofuran-3-ylcarbonyl)piperidin-4-yl][1]benzofuro[3,2-d]pyrimidin-4(3H)-one], for which the half-maximal inhibitory concentration (IC50) (on CK2; in assay [1]) was under 10 µM each time.
Take `O=C(c1ccccc1)N1CCC(c2nc3c(oc4ccc(Br)cc43)c(=O)[nH]2)CC1` [Compound 234, 8-bromo-2-[1-(phenylcarbonyl)piperidin-4-yl][1]benzofuro[3,2-d]pyrimidin-4(3H)-one]: the IC50 (on CK2; in assay [1]) was under 10 µM throughout.
Consider `O=C(c1ccncc1)N1CCC(c2nc3c(oc4ccc(Br)cc43)c(=O)[nH]2)CC1` [Compound 236, 8-bromo-2-[1-(pyridin-4-ylcarbonyl)piperidin-4-yl][1]benzofuro[3,2-d]pyrimidin-4(3H)-one], for which the concentration for half-maximal inhibition (IC50) (on CK2; in assay [1]) was under 10 µM each time.
For `O=C(Cc1ccccc1)N1CCC(c2nc3c(oc4ccc(Br)cc43)c(=O)[nH]2)CC1` [Compound 237, 8-bromo-2-[1-(phenylacetyl)piperidin-4-yl][1]benzofuro[3,2-d]pyrimidin-4(3H)-one], the IC50 (on CK2; in assay [1]) was under 10 µM each time.
